Patent publication US20250084039A1, “4-SUBSTITUTED AMINOISOQUINOLINE DERIVATIVES” (Purdue Research Foundation, priority 2016, published 2025)
Like-named read-outs stand apart in the source and are kept apart here. Blank lines part the entries; values can stand above or below the compound they belong to.

Columns and labels:
[1] = target: BTK (Homo sapiens (Human), UniProt Q06187); assay: Reaction Biology HotSpot kinase assay; format: biochemical; conditions: 500 nM compound
Outline: (§1)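 Phosphotransfer from [γ-33P]ATP was quantified after filter binding on P81 paper. Conditions: 20 mM HEPES pH 7.5, 10 mM MgCl2, 0.1 mM Na3VO4, 2 mM DTT, 0.02 mg/mL BSA; ATP 100 μM final; 2 h at room temperature. Compound was dosed at 500 nM.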

[2] = target: TIE2/TEK (Homo sapiens (Human), UniProt Q02763); assay: Reaction Biology HotSpot kinase assay; format: biochemical; conditions: 500 nM compound
Outline: as §1

[3] = target: BRAF (Homo sapiens (Human), UniProt P15056); assay: Reaction Biology HotSpot kinase assay; format: biochemical; conditions: 500 nM compound
Outline: (§2)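 Each compound was tested at 500 nM, with 33P incorporation from ATP (100 μM final, including [γ-33P]ATP) measured by P81 paper capture after a 2 h room-temperature reaction.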

[4] = target: FLT1/VEGFR1 (Homo sapiens (Human), UniProt P17948); assay: Reaction Biology HotSpot kinase assay; format: biochemical; conditions: 500 nM compound
Outline: as §1

[5] = target: ERBB2/HER2 (Homo sapiens (Human), UniProt P04626); assay: Reaction Biology HotSpot kinase assay; format: biochemical; conditions: 500 nM compound
Outline: as §1

[6] = target: c-MER (Homo sapiens (Human), UniProt Q12866); assay: Reaction Biology HotSpot kinase assay; format: biochemical; conditions: 500 nM compound
Outline: as §1

[7] = target: EPHA5 (Homo sapiens (Human), UniProt P54756); assay: Reaction Biology HotSpot kinase assay; format: biochemical; conditions: 500 nM compound
Outline: as §1

[8] = target: FGR (Homo sapiens (Human), UniProt P09769); assay: Reaction Biology HotSpot kinase assay; format: biochemical; conditions: 500 nM compound
Outline: as §1

[9] = target: FGFR1 (Homo sapiens (Human), UniProt P11362); assay: Reaction Biology HotSpot kinase assay; format: biochemical; conditions: 500 nM compound
Outline: (§3)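 HotSpot 33P transfer format. Enzyme, substrate and 500 nM test compound sit together for 20 min, then labelled and unlabelled ATP totalling 100 μM are added and phosphorylation proceeds for 2 h at room temperature. Products are captured on P81 cellulose paper, and activity is expressed relative to DMSO.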

[10] = target: YES/YES1 (Homo sapiens (Human), UniProt P07947); assay: Reaction Biology HotSpot kinase assay; format: biochemical; conditions: 500 nM compound
Outline: as §1

[11] = target: ROS/ROS1 (Homo sapiens (Human), UniProt P08922); assay: Reaction Biology HotSpot kinase assay; format: biochemical; conditions: 500 nM compound
Outline: as §1

[12] = target: c-Met (Homo sapiens (Human), UniProt P08581); assay: Reaction Biology HotSpot kinase assay; format: biochemical; conditions: 500 nM compound
Outline: as §1

[13] = target: FLT4/VEGFR3 (Homo sapiens (Human), UniProt P35916); assay: Reaction Biology HotSpot kinase assay; format: biochemical; conditions: 500 nM compound
Outline: as §1

[14] = target: KDR/VEGFR2 (Homo sapiens (Human), UniProt P35968); assay: Reaction Biology HotSpot kinase assay; format: biochemical; conditions: 500 nM compound
KDR/VEGFR2, sequence (P35968 20-1356): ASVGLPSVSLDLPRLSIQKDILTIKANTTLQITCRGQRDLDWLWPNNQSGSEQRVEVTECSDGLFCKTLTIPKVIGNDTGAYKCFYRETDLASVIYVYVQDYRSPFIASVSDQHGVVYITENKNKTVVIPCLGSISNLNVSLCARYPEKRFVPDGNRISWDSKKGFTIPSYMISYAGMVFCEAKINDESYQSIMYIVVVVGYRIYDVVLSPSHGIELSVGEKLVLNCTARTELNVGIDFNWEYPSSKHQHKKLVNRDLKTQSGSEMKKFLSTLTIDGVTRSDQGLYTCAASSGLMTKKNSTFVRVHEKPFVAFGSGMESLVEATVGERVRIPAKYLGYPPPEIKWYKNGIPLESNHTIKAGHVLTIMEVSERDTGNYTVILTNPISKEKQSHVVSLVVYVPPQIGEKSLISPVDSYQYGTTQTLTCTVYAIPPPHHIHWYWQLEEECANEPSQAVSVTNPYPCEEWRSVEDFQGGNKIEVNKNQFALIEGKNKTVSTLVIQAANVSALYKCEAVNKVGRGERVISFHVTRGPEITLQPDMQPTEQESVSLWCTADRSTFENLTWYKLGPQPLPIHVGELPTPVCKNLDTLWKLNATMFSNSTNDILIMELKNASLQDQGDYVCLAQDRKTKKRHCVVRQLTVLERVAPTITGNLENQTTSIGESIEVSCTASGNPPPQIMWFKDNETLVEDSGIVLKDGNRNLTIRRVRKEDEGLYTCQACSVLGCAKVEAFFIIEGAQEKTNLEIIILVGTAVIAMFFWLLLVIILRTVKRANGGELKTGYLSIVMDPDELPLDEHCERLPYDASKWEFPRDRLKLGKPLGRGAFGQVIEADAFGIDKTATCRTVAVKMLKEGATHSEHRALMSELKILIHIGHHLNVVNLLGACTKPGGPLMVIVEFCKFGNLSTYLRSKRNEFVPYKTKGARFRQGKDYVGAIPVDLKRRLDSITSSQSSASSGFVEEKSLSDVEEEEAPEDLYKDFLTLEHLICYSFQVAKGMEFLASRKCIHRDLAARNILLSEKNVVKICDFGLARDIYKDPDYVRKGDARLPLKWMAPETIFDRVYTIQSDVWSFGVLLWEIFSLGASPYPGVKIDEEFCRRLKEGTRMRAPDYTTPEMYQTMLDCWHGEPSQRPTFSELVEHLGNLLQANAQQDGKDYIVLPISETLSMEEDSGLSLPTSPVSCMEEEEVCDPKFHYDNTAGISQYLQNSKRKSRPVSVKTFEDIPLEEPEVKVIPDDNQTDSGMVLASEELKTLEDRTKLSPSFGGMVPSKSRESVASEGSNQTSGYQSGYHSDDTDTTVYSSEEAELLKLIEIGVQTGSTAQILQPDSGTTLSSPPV
Outline: as §1

[15] = target: TRKB (Homo sapiens (Human), UniProt Q16620); assay: Reaction Biology HotSpot kinase assay; format: biochemical; conditions: 500 nM compound
Outline: as §1

[16] = target: PDGFRa (Homo sapiens (Human), UniProt P16234); assay: Reaction Biology HotSpot kinase assay; format: biochemical; conditions: 500 nM compound
Outline: as §1

[17] = target: FLT3 (Homo sapiens (Human), UniProt P36888); assay: Reaction Biology HotSpot kinase assay; format: biochemical; conditions: 500 nM compound
FLT3, sequence (P36888 27-993): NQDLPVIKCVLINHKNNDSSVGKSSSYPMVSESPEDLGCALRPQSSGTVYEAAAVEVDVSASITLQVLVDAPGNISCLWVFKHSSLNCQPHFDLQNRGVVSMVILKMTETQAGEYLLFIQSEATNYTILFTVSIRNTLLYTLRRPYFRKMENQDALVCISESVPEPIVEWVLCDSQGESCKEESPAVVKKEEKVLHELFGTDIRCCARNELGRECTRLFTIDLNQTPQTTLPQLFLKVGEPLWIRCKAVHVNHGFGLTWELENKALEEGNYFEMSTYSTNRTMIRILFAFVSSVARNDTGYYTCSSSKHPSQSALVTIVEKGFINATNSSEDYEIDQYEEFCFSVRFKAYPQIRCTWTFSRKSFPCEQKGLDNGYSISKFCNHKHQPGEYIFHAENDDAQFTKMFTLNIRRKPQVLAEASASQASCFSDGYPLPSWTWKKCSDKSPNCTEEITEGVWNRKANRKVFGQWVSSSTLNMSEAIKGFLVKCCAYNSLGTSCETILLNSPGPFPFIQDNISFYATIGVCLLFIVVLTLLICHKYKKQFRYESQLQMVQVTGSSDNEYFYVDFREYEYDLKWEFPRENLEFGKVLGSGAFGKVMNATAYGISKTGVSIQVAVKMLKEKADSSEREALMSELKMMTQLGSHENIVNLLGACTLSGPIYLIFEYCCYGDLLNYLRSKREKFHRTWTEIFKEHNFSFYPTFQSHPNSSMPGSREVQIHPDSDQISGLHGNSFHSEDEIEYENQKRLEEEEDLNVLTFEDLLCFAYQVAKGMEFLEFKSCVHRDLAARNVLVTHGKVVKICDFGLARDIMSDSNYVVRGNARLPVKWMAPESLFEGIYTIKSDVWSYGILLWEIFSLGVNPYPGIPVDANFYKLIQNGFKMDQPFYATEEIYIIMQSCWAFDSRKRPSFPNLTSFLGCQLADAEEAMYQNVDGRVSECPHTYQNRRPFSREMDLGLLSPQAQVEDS
Outline: as §3

[18] = target: ALK (Homo sapiens (Human), UniProt Q9UM73); assay: Reaction Biology HotSpot kinase assay; format: biochemical; conditions: 500 nM compound
ALK, sequence (Q9UM73 19-1620): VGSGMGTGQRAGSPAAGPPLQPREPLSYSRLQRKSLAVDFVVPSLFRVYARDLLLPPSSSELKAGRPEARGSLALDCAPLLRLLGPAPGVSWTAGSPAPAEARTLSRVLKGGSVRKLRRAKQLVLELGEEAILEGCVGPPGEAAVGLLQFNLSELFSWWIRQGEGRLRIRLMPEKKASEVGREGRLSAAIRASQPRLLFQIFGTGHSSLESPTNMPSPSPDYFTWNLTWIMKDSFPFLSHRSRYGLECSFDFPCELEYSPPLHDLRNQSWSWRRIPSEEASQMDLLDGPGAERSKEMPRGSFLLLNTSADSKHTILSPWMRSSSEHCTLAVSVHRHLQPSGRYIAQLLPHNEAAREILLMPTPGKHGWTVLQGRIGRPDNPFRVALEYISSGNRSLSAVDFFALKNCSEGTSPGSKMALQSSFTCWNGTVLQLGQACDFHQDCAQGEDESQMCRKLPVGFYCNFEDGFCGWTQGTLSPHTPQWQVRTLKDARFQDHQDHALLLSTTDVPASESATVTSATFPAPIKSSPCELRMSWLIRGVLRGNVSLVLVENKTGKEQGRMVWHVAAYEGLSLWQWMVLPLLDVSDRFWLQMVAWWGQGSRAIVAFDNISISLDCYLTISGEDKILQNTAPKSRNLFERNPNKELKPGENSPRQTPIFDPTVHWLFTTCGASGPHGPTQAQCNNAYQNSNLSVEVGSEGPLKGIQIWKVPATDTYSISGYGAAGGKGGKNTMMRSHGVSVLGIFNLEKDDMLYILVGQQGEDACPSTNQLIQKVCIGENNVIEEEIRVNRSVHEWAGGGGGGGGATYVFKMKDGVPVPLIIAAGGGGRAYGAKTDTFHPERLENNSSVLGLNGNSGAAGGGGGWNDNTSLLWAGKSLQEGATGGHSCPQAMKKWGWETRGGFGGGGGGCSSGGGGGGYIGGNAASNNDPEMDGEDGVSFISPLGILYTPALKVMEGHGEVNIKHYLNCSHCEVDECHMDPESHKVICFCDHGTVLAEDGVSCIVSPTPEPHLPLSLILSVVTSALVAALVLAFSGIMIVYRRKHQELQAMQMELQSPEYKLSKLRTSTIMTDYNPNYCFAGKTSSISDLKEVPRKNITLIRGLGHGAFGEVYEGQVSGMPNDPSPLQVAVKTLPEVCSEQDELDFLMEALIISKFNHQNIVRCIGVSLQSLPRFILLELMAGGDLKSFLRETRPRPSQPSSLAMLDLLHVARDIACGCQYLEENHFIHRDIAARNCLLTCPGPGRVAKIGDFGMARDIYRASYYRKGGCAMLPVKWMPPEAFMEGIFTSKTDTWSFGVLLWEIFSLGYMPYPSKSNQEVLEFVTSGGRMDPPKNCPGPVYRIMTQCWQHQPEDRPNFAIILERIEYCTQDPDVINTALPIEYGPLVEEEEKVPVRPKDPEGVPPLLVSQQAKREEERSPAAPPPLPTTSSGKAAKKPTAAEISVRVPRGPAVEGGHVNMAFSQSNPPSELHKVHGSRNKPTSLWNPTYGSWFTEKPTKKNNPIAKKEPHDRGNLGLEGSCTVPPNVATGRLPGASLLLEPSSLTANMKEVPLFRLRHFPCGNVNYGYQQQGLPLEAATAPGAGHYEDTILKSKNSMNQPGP
Outline: as §1

[19] = target: PKCa (Homo sapiens (Human), UniProt P17252); assay: Reaction Biology HotSpot kinase assay; format: biochemical; conditions: 500 nM compound
Outline: as §1

[20] = target: AKT1 (Homo sapiens (Human), UniProt P31749); assay: Reaction Biology HotSpot kinase assay; format: biochemical; conditions: 500 nM compound
Outline: as §3

[21] = target: AXL (Homo sapiens (Human), UniProt P30530); assay: Reaction Biology HotSpot kinase assay; format: biochemical; conditions: 500 nM compound
AXL, sequence (P30530 26-894): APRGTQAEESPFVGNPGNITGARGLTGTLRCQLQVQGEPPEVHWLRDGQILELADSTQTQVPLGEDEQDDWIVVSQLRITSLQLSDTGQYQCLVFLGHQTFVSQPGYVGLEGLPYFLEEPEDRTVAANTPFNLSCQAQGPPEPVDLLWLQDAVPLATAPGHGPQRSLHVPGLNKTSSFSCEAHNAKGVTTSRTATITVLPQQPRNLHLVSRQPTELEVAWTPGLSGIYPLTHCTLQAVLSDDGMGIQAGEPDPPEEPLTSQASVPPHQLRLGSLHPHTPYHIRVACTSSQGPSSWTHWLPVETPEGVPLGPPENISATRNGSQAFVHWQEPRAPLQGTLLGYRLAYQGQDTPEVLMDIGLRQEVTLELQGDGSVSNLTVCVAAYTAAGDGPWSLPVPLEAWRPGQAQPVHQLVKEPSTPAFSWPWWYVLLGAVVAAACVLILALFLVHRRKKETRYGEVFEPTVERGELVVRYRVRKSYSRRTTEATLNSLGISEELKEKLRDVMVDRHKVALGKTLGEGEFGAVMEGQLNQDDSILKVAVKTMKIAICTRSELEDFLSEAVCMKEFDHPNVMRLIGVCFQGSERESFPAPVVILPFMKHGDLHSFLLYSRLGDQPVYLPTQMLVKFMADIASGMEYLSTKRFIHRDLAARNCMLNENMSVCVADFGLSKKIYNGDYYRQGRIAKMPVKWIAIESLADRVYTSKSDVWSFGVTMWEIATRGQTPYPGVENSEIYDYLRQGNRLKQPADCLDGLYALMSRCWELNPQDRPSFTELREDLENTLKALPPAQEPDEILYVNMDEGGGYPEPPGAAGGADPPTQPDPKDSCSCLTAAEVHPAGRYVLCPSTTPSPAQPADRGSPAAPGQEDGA
Outline: as §2

[22] = target: EGFR (Homo sapiens (Human), UniProt P00533); assay: Reaction Biology HotSpot kinase assay; format: biochemical; conditions: 500 nM compound
Outline: as §1

[23] = target: EPHB2 (Homo sapiens (Human), UniProt P29323); assay: Reaction Biology HotSpot kinase assay; format: biochemical; conditions: 500 nM compound
Outline: as §1

[24] = test system: K562; assay: IC50 proliferation assay (Alamar Blue, 72 h); format: cell-based
[25] = test system: MV4-11; assay: IC50 proliferation assay (Alamar Blue, 72 h); format: cell-based; conditions: read-out: IC50 (proliferation inhibition) Cell line - MV4-11
Outline: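 Cells seeded ~18 h before treatment with semi-serial compound dilutions made in DMSO then growth medium. After 72 h exposure, Alamar Blue added and read following 4 h further at 37 °C; IC50 for proliferation inhibition.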

Percentage kinase inhibition BTK [1]: 5% | Percentage kinase inhibition TIE2/TEK [2]: 8% | Percentage kinase inhibition BRAF [3]: 3% | Percentage kinase inhibition FLT1/VEGFR1 [4]: 0% | Percentage kinase inhibition ERBB2/HER2 [5]: 0% | Percentage kinase inhibition c-MER [6]: 6% | Percentage kinase inhibition EPHA5 [7]: 4% | Percentage kinase inhibition FGR [8]: 6% | Percentage kinase inhibition FGFR1 [9]: 11% | Percentage kinase inhibition YES/YES1 [10]: 13% | Percentage kinase inhibition ROS/ROS1 [11]: 15% | Percentage kinase inhibition c-Met [12]: 4% | Percentage kinase inhibition FLT4/VEGFR3 [13]: 10% | Percentage kinase inhibition KDR/VEGFR2 [14]: 9% | Percentage kinase inhibition TRKB [15]: 40% | Percentage kinase inhibition PDGFRa [16]: 48% | % inhibition of FLT3 activity [17]: 66% | Percentage kinase inhibition ALK [18]: 7% | Percentage kinase inhibition PKCa [19]: 3% | Percentage kinase inhibition AKT1 [20]: 13% | Percentage kinase inhibition AXL [21]: 0% | Percentage kinase inhibition EGFR [22]: 0% | Percentage kinase inhibition EPHB2 [23]: 5% | IC50 ([24]; 72 h, read-out: IC50 (proliferation inhibition) Cell line - K562): 5060 nM | IC50 ([24]; Table 18, read-out: Inhibition of proliferation of K562 cell lines (CML)): 5057 ± 0.45 nM | IC50 ([25]; 72 h): 71 nM
SMILES: CN(C)CC(O)CNC(=O)c1ccc(C#Cc2c(N)ncc3ccc(Cl)cc23)cc1 (stereo not shown) [HSM1702]

inhibition at 0.5 µM ([1]; read-out: Percentage kinase inhibition BTK): 0% | inhibition at 0.5 µM ([2]; read-out: Percentage kinase inhibition TIE2/TEK): 0% | inhibition at 0.5 µM ([3]; read-out: Percentage kinase inhibition BRAF): 64% | inhibition at 0.5 µM ([4]; read-out: Percentage kinase inhibition FLT1/VEGFR1): 3% | inhibition at 0.5 µM ([5]; read-out: Percentage kinase inhibition ERBB2/HER2): 0% | inhibition at 0.5 µM ([6]; read-out: Percentage kinase inhibition c-MER): 3% | inhibition at 0.5 µM ([7]; read-out: Percentage kinase inhibition EPHA5): 0% | inhibition at 0.5 µM ([8]; read-out: Percentage kinase inhibition FGR): 0% | inhibition at 0.5 µM ([9]; read-out: Percentage kinase inhibition FGFR1): 0% | inhibition at 0.5 µM ([10]; read-out: Percentage kinase inhibition YES/YES1): 0% | inhibition at 0.5 µM ([11]; read-out: Percentage kinase inhibition ROS/ROS1): 0% | inhibition at 0.5 µM ([12]; read-out: Percentage kinase inhibition c-Met): 23% | inhibition at 0.5 µM ([13]; read-out: Percentage kinase inhibition FLT4/VEGFR3): 6% | inhibition at 0.5 µM ([14]; read-out: Percentage kinase inhibition KDR/VEGFR2): 15% | inhibition at 0.5 µM ([15]; read-out: Percentage kinase inhibition TRKB): 0% | inhibition at 0.5 µM ([16]; read-out: Percentage kinase inhibition PDGFRa): 30% | inhibition at 0.5 µM ([17]; read-out: % inhibition of FLT3 activity): 28% | inhibition at 0.5 µM ([18]; read-out: Percentage kinase inhibition ALK): 1% | inhibition at 0.5 µM ([19]; read-out: Percentage kinase inhibition PKCa): 6% | inhibition at 0.5 µM ([20]; read-out: Percentage kinase inhibition AKT1): 0% | inhibition at 0.5 µM ([21]; read-out: Percentage kinase inhibition AXL): 0% | inhibition at 0.5 µM ([22]; read-out: Percentage kinase inhibition EGFR): 0% | inhibition at 0.5 µM ([23]; read-out: Percentage kinase inhibition EPHB2): 3% | IC50 ([24]; Homo sapiens, K562, 72 h, read-out: IC50 (proliferation inhibition) Cell line - K562): 1100 nM | IC50 ([24]; Homo sapiens, K562, Table 18, read-out: Inhibition of proliferation of K562 cell lines (CML)): 1102 ± 0.08 nM | IC50 ([25]; Homo sapiens, MV4-11, 72 h): 722 nM
SMILES: Cc1ccc(C(=O)Nc2ccc(CN3CCN(C)CC3)c(C(F)(F)F)c2)cc1C#Cc1cc(N)nc2ccccc12 [HSN285]
